The source made the active and inactive calls. The rule behind the calls is not given here.
Columns and labels:
Cytochrome P450 2C19 = Cytochrome P450 2C19 (Homo sapiens, UniProt P33261); assay: (§1) Inhibition of CYP2C19; type: ADME
Histamine H3 receptor [1] = biological target: T1, Histamine H3 receptor (Homo sapiens, UniProt Q9Y5N1); assay: Antagonist activity at human histamine H3 receptor assessed as inhibition of [35S]-GTPgammaS binding; type: functional
Rattus norvegicus [2] = assay: Wake promoting activity in EEG/EMG Sprague-Dawley rat model assessed as maximal cumulative wake surplus time at 10 to 30 mg/kg, ip measured after 9 hrs; type: functional; settings: dose mg/kg 10-30; route intraperitoneal
Rattus norvegicus [3] = assay: Inhibition of RAMH-induced dipsogenia in rat at 1 mg/kg, ip; type: functional, organism-based; parameters: dose 1 mg/kg
Histamine H3 receptor [4] = biological target: T1, Histamine H3 receptor; assay: Displacement of [3H]NAMH from human histamine H3 receptor expressed in CHO cells; type: cell-based
Rattus norvegicus [5] = assay: Wake promoting activity in EEG/EMG Sprague-Dawley rat model assessed as wake time at 10 mg/kg, ip measured up to 4 hrs (reference value: 85 +/- 9 mins); type: functional; settings: route intraperitoneal
[6] = Cmax in rat at 5 mg/kg, po; type: ADME, organism-based; parameters: dose 5 mg/kg, route oral; settings: in vivo
Histamine H3 receptor [7] = biological target: Histamine H3 receptor (Rattus norvegicus, UniProt Q9QYN8); assay: Displacement of [3H]NAMH from rat histamine H3 receptor expressed in CHO cells; type: cell-based
Histamine H3 receptor (Rattus norvegicus, UniProt Q9QYN8), sequence (Q9QYN8 whole entry): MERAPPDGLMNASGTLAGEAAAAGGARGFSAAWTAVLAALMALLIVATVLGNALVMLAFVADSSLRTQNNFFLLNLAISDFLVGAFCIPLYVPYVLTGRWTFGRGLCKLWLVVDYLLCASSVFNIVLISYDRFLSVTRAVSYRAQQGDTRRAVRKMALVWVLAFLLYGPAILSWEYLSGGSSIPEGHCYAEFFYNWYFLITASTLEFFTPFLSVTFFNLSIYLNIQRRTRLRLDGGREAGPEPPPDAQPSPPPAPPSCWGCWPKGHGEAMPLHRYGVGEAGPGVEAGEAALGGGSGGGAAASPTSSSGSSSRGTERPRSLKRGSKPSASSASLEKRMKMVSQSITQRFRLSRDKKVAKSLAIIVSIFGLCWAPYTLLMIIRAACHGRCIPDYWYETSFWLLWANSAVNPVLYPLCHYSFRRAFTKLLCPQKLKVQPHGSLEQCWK

Rattus norvegicus [8] = assay: Wake promoting activity in EEG/EMG Sprague-Dawley rat model assessed as cumulative wake time at 30 mg/kg, ip measured after 5 hrs relative to control; type: functional; settings: route intraperitoneal
Rattus norvegicus [9] = assay: Wake promoting activity in EEG/EMG Sprague-Dawley rat model at 30 mg/kg, ip measured after 3.5 hrs relative to control; type: functional, organism-based; parameters: dose 30 mg/kg
Cytochrome P450 2C9 = Cytochrome P450 2C9 (Homo sapiens, UniProt P11712); assay: (§2) Inhibition of CYP2C9; type: ADME
Cytochrome P450 2C9, sequence (P11712 whole entry): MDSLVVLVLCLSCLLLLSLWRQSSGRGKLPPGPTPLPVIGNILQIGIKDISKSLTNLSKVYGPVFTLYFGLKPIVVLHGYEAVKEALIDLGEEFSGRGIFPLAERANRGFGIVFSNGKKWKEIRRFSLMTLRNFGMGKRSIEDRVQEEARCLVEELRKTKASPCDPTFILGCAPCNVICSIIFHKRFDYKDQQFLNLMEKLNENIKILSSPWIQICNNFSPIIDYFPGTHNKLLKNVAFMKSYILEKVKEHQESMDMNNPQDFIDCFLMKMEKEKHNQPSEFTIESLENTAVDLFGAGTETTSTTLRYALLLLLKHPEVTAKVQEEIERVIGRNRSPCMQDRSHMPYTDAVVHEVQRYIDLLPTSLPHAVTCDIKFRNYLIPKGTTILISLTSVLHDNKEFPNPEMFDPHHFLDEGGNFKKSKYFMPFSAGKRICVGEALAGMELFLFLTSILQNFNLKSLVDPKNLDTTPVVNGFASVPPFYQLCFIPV

Cytochrome P450 1A2 = biological target: T2, Cytochrome P450 1A2 (Homo sapiens, UniProt P05177); assay: (§3) Inhibition of CYP1A2; type: ADME
T2 sequence (P05177 whole entry): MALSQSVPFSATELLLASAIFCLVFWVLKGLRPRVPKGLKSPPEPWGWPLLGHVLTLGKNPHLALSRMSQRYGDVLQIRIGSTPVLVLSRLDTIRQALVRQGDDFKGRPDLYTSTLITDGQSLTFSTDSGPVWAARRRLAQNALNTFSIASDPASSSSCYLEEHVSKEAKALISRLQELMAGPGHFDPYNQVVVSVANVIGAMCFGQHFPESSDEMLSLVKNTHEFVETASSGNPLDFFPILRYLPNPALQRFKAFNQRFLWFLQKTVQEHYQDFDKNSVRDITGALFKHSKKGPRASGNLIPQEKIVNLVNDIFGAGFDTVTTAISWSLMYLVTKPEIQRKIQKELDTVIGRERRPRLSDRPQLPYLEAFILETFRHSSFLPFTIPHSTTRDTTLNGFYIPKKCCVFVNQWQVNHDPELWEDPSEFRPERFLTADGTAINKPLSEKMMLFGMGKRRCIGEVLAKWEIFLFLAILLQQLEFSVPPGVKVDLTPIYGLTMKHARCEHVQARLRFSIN

[10] = AUC in rat at 5 mg/kg, po; type: ADME, organism-based; parameters: dose 5 mg/kg, route oral; settings: plasma
Rattus norvegicus [11] = assay: Wake promoting activity in EEG/EMG Sprague-Dawley rat model assessed as wake time at 30 mg/kg, ip measured up to 4 hrs (reference value: 85 +/- 9 mins); type: functional; settings: route intraperitoneal
[12] = Oral bioavailability in rat at 5 mg/kg; type: ADME, organism-based; settings: in vivo
Cytochrome P450 2D6 = Cytochrome P450 2D6 (Homo sapiens, UniProt P10635); assay: (§4) Inhibition of CYP2D6; type: ADME
Cytochrome P450 2D6, sequence (P10635 whole entry): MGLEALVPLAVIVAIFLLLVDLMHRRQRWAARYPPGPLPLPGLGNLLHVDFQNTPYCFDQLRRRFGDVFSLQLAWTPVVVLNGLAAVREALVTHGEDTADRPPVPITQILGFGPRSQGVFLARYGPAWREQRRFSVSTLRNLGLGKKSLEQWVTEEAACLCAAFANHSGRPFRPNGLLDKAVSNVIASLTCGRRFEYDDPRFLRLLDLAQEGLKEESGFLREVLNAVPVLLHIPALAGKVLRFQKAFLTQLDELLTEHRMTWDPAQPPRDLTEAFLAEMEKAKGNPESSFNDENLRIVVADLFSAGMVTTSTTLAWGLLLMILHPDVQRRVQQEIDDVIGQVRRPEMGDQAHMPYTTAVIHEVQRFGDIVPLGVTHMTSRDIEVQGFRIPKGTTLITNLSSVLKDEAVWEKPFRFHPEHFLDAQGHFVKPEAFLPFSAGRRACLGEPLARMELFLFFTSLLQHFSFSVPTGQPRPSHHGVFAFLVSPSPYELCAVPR

Cytochrome P450 3A4 = Cytochrome P450 3A4 (Homo sapiens, UniProt P08684); assay: (§5) Inhibition of CYP3A4; type: ADME
Cytochrome P450 3A4, sequence (P08684 whole entry): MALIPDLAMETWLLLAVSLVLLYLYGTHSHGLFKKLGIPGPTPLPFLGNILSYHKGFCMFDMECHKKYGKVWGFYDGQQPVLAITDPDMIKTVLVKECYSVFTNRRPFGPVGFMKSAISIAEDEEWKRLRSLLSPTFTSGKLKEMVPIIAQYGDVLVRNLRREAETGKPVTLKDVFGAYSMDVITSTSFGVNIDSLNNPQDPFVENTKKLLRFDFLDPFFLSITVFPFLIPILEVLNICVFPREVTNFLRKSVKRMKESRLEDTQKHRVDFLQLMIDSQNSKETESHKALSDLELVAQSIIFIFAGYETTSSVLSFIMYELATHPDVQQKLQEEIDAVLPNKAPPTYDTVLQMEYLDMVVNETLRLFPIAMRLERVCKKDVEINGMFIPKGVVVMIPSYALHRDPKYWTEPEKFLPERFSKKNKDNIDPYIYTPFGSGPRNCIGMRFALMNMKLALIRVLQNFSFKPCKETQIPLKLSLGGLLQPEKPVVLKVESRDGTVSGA

[13] = Volume of distribution in rat at […], iv; type: ADME, organism-based; settings: in vivo
Rattus norvegicus [14] = assay: Wake promoting activity in EEG/EMG Sprague-Dawley rat model assessed as sleep rebound at 10 to 30 mg/kg, ip; type: functional, organism-based
[15] = Half life in rat at […], iv; type: ADME, organism-based; settings: in vivo
[16] = Clearance in rat at […], iv; type: ADME, organism-based; settings: in vivo
[17] = Ratio of drug level in brain to plasma in rat at 5 mg/kg, po measured after 6 hrs; type: ADME, organism-based; parameters: dose 5 mg/kg, route oral; settings: read-out: BPR
Rattus norvegicus [18] = assay: Wake promoting activity in EEG/EMG Sprague-Dawley rat model measured up to 4 hrs post dosing; type: functional, organism-based
Histamine H3 receptor [19] = biological target: T1, Histamine H3 receptor; assay: Inverse agonist activity at human histamine H3 receptor by [35S]-GTPgammaS binding assay; type: functional
CYP2C19 = CYP2C19 (Homo sapiens, UniProt P33261); assay: as §1; type: ADME
CYP2C19, sequence (P33261 whole entry): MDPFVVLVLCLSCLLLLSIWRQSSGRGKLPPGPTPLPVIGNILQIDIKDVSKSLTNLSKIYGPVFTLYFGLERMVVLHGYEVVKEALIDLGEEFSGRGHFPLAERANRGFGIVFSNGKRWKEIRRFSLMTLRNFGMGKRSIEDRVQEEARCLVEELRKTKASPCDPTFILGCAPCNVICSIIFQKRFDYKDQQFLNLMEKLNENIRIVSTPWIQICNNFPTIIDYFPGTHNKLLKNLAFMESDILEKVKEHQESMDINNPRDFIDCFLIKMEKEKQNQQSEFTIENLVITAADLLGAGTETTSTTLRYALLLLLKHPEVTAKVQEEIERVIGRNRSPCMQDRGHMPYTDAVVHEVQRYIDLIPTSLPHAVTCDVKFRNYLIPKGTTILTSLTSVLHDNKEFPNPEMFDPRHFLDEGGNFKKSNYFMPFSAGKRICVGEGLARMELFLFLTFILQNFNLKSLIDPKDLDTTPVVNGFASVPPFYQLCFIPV

[20] = biological target: Histamine H1 receptor (Homo sapiens) (UniProt P35367); assay: Inhibition of human histamine H1 receptor at 10 uM
Histamine H1 receptor (Homo sapiens), sequence (P35367 whole entry): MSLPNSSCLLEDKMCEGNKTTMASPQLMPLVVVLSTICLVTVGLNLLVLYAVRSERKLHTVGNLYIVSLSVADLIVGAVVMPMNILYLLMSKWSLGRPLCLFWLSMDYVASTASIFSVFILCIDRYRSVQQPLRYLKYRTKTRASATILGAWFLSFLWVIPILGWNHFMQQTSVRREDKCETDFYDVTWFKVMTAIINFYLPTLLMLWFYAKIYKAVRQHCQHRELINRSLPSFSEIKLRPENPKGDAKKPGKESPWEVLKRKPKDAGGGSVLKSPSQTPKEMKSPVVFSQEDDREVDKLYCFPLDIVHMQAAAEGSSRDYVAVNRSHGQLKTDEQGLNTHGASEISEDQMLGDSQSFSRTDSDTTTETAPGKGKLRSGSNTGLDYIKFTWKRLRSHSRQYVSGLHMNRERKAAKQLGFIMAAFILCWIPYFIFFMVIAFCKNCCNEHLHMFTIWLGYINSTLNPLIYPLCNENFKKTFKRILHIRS

[21] = Half life in monkey liver microsomes; type: ADME, Macaca mulatta, Microsome; settings: rhesus monkey
[22] = Half life in mouse liver microsomes; type: ADME, Microsome
[23] = biological target: Histamine H2 receptor (Homo sapiens) (UniProt P25021); assay: Inhibition of human histamine H2 receptor at 10 uM
Histamine H2 receptor (Homo sapiens), sequence (P25021 whole entry): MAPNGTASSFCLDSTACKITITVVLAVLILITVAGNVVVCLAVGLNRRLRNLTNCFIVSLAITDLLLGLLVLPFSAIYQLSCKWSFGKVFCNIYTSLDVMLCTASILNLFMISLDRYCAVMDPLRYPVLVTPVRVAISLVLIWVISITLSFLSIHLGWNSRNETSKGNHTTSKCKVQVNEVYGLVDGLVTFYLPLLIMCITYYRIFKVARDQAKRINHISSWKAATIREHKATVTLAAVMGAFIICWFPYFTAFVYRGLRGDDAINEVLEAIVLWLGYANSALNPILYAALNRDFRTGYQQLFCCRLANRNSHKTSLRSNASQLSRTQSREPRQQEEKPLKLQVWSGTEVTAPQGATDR

CYP2C9 = CYP2C9 (Homo sapiens, UniProt P11712); assay: as §2; type: ADME
CYP2C9, sequence (P11712 whole entry): as the sequence (P11712 whole entry) above

CYP1A2 = biological target: T3, CYP1A2 (Homo sapiens, UniProt P05177); assay: as §3; type: ADME
T3 sequence (P05177 whole entry): T2 sequence (P05177 whole entry)

CYP2D6 = CYP2D6 (Homo sapiens, UniProt P10635); assay: as §4; type: ADME
CYP2D6, sequence (P10635 whole entry): as the sequence (P10635 whole entry) above

[24] = Half life in rat liver microsomes; type: ADME, Microsome
hERG (KCNH2) = hERG (KCNH2) (Homo sapiens, UniProt Q12809); assay: Inhibition of human ERG at 10 uM
CYP3A4 = CYP3A4 (Homo sapiens, UniProt P08684); assay: as §5; type: ADME
CYP3A4, sequence (P08684 whole entry): as the sequence (P08684 whole entry) above

Caco-2 = assay: Permeability across human Caco2 cells; type: ADME, cell-based
[25] = biological target: Histamine H4 receptor (Homo sapiens) (UniProt Q9H3N8); assay: Inhibition of human histamine H4 receptor at 10 uM
[26] = Plasma protein binding in rat; type: ADME, cell-free; settings: read-out: PPB
[27] = Half life in dog liver microsomes; type: ADME, Canis lupus familiaris, Microsome
[28] = Plasma protein binding in human; type: ADME, cell-free; settings: read-out: PPB
[29] = Half life in human liver microsomes; type: ADME, Microsome
Rattus norvegicus [30] = assay: Inhibition of RAMH-induced dipsogenia in ip dosed rat; type: functional
Rattus norvegicus [31] = assay: Wake promoting activity in EEG/EMG Sprague-Dawley rat model at 30 mg/kg, ip measured after 4 hrs relative to vehicle-treated control; type: functional; settings: route intraperitoneal

T1 sequence (Q9Y5N1 whole entry): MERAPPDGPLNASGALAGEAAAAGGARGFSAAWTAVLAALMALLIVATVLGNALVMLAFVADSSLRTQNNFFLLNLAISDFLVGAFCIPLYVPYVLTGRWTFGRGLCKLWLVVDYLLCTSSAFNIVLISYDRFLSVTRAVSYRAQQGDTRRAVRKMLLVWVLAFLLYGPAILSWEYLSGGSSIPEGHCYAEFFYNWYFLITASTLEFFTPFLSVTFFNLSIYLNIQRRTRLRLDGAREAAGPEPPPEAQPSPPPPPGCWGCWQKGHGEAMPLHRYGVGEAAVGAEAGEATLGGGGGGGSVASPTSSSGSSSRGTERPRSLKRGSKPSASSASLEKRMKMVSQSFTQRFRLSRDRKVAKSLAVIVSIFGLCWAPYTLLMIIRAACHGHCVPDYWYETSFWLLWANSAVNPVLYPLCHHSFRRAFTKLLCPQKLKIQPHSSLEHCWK
Cytochrome P450 2C19, sequence (P33261 whole entry): as the sequence (P33261 whole entry) above

| SMILES | Ki (Histamine H3 receptor [4]) [nM] | Cmax [6] [ng/mL] | Ki (Histamine H3 receptor [7]) [nM] | AUC [10] [ng·h/mL] | bioavailability [12] [%] | IC50 (Cytochrome P450 2D6) [nM] | Vd [13] [L/kg] | half-life [15] [min] | clearance [16] [mL/min/kg] | Kp at 6 h [17] | other results |
| --- | --- | --- | --- | --- | --- | --- | --- | --- | --- | --- | --- |
| C[C@@H]1CCCN1CCCOc1ccc(C(=O)CN2CCC(F)(F)CC2)cc1 | 11 | 66 | 43 | 266 | 15 | > 30000 | 2.2 | 30 | 53 | 25 | IC50 (Cytochrome P450 2C19): > 30000 nM; Kb (Histamine H3 receptor [1]): 3.7 nM; Time (Rattus norvegicus [2]): 46 min; inhibition (Rattus norvegicus [3]): Active; Time (Rattus norvegicus [5]): 150 min; Time (Rattus norvegicus [8]): 113 min; Activity (Rattus norvegicus [9]): Active; IC50 (Cytochrome P450 2C9): > 30000 nM; IC50 (Cytochrome P450 1A2): > 30000 nM; Time (Rattus norvegicus [11]): 195 min; IC50 (Cytochrome P450 3A4): > 30000 nM; Activity (Rattus norvegicus [14]): inactive; Activity (Rattus norvegicus [18]): Dose-dependent effect; EC50 (Histamine H3 receptor [19]): 1.8 nM |
| CC(=O)N1CCN(CC(=O)c2ccc(OCCCN3CCC[C@H]3C)cc2)CC1 | 2.8 | – | 30 | – | – | – | – | – | – | < 0.6 | – |
| C[C@@H]1CCCN1CCCOc1ccc(C(=O)CN2CCN(C(=O)Oc3ccccc3)CC2)cc1 | 3.9 | – | 6.9 | – | – | – | – | – | – | – | – |
| C[C@@H]1CCCN1CCCOc1ccc(C(=O)CN2CCOCC2)cc1 | – | 17 | – | 81 | – | – | 27 | 138 | 126 | 50 | IC50 (CYP2C19): > 30000 nM; inhibition [20]: < 50%; half-life [21]: > 40 min; half-life [22]: > 40 min; inhibition [23]: < 50%; IC50 (CYP2C9): > 30000 nM; IC50 (CYP1A2): > 30000 nM; IC50 (CYP2D6): > 30000 nM; half-life [24]: > 40 min; inhibition at 10 µM (hERG (KCNH2)): 21%; IC50 (CYP3A4): > 30000 nM; permeability (Caco-2): permeable; inhibition [25]: < 50%; fraction unbound [26]: > 0.8; half-life [27]: > 40 min; fraction unbound [28]: > 0.8; half-life [29]: > 40 min |
| CCOC(=O)N1CCN(CC(=O)c2ccc(OCCCN3CCC[C@H]3C)cc2)CC1 | 4 | – | 23 | – | 33 | 5000 | 2.8 | 126 | 16 | 2.4 | – |
| C[C@@H]1CCCN1CCCOc1ccc(C(=O)CN2CCN(C(=O)c3ccccc3)CC2)cc1 | 1.9 | 165 | 14 | 689 | 14 | > 30000 | 1.4 | 72 | 14 | 1.5 | IC50 (Cytochrome P450 2C19): > 30000 nM; Kb (Histamine H3 receptor [1]): 0.8 nM; half-life [21]: > 40 min; half-life [22]: > 40 min; IC50 (Cytochrome P450 2C9): > 30000 nM; IC50 (Cytochrome P450 1A2): > 30000 nM; ED50 (Rattus norvegicus [30]): 0.43 mg/kg; inhibition (Rattus norvegicus [30]): Dose-dependent effect; half-life [24]: > 40 min; IC50 (Cytochrome P450 3A4): > 30000 nM; half-life [27]: > 40 min; Activity (Rattus norvegicus [31]): 33%; half-life [29]: > 40 min; EC50 (Histamine H3 receptor [19]): 1 nM |
| C[C@@H]1CCCN1CCCOc1ccc(C(=O)CN2CCN(S(C)(=O)=O)CC2)cc1 | 3.4 | – | 26 | – | – | – | – | – | – | < 0.6 | – |

Further compounds by falling Ki (Histamine H3 receptor [4]), results first:

| Ki (Histamine H3 receptor [4]) [nM] | Cmax [6] [ng/mL] | Ki (Histamine H3 receptor [7]) [nM] | AUC [10] [ng·h/mL] | bioavailability [12] [%] | IC50 (Cytochrome P450 2D6) [nM] | Vd [13] [L/kg] | half-life [15] [min] | clearance [16] [mL/min/kg] | Kp at 6 h [17] | SMILES | other results |
| --- | --- | --- | --- | --- | --- | --- | --- | --- | --- | --- | --- |
| 9 | – | 48 | – | – | – | – | – | – | – | C[C@@H]1CCCN1CCCOc1ccc(C(=O)CN2CCCC(F)(F)C2)cc1 | – |
| 3.4 | – | 21 | – | – | – | – | – | – | – | C[C@@H]1CCCN1CCCOc1ccc(C(=O)CN2CCC(F)(F)C2)cc1 | – |
| 2.5 | – | 9.1 | – | – | – | – | – | – | – | C[C@@H]1CCCN1CCCOc1ccc(C(=O)CN2CCC(C(F)(F)F)CC2)cc1 | – |

Source: ChEMBL document CHEMBL2034887, “Substituted phenoxypropyl-(R)-2-methylpyrrolidine aminomethyl ketones as histamine-3 receptor inverse agonists” (Bioorg Med Chem Lett, 2012)
